Our source for the Kd values is ChEMBL document CHEMBL1134516, “Probing the interaction of dengue virus envelope protein with heparin: assessment of glycosaminoglycan-derived inhibitors” (J Med Chem, 2001).

The experiment relates to Dengue virus. Kind of experiment: Dissociation constant for Dengue virus envelope protein binding by surface plasmon resonance. The class given is functional. (In SPR one partner is held on a chip, and binding of the other changes the refractive index at the surface.)

With `Cc1ccc(C(=O)Nc2ccc(S(=O)(=O)O)c3cc(S(=O)(=O)O)cc(S(=O)(=O)O)c23)cc1NC(=O)c1cccc(NC(=O)Nc2cccc(C(=O)Nc3cc(C(=O)Nc4ccc(S(=O)(=O)O)c5cc(S(=O)(=O)O)cc(S(=O)(=O)O)c45)ccc3C)c2)c1` [SURAMIN], binding was characterised by a dissociation constant (Kd) of 40 nM.
